According to US11447470B2, “Pyrimidinone-containing compound, preparation method thereof, pharmaceutical composition and application thereof” (YUNNAN UNIVERSITY, priority 2018, dated 2022):
Like-named read-outs stand apart in the source and are kept apart here.

Assays:
HIV-1IIIB = experiment: Syncytium inhibition experiment, C8166 cells infected with HIV-1IIIB; format: cell-based; details: Human immunodeficiency virus 1, 72 h; HIV-1IIIB (MOI=0.04) in C8166 cells, syncytium count, three days
Experimental: (§1) C8166 cells infected with HIV-1 were used for determining the anti-HIV biological activity at the cellular level. The specific method was described below.
Syncytium inhibition experiment: 100 μL of C8166 cell suspension (4×10^5/mL) was seeded into each well of 96-well cell culture plates containing 5-fold serial dilutions of the compounds, followed by addition of HIV-1IIIB diluted supernatant (MOI=0.04). Triplicate wells were set for each serial concentration. […] The cells were cultured at 37° C. in a 5% CO2 incubator for three days. The number of the syncytia was counted in five non-overlapping fields of view by using an inverted microscope (100×).

[1] = Cytotoxicity experiment (MTT method) on C8166 cells; format: cell-based; details: human
Experimental: as §1
Cytotoxicity experiment: The toxicity of the compounds on C8166 cells was determined by MTT method. In 96-well cell culture plates, the compounds were subjected to 5-fold serial dilution and 100 μL of C8166 cell suspension (4×10^5/mL) was added into each well. Triplicate wells were set for each concentration. […] The cells were incubated at 37° C. in a 5% CO2 incubator for three days, followed by the addition of MTT solution into each well, and then the cells were incubated at 37° C. for 4 hours. 10% SDS-50% DMF was added into each well and the cells were incubated at 37° C. in a 5% CO2 incubator overnight. After mixing evenly, the OD values were measured by BIO-TEK ELx800 ELISA instrument (determination wavelength: 570 nm; reference wavelength: 630 nm).

[2] = C8166 cells, MTT, three days, read-out: CC50

Structure (SMILES) | EC50 (HIV-1IIIB) [nM] | CC50 at 3 days [1] [nM] | CC50 at 3 days [1, 2] [nM]
CCc1c(CC2CCCCC2)nc(SCc2n[nH]c(-c3ccccc3)c2Cl)[nH]c1=O [Compound I-01] | 99 | – | –
CCc1c(CC2CCCCC2)nc(SCc2cc(-c3ccc(F)cc3F)[nH]n2)[nH]c1=O [Compound I-20] | 42 | – | –
Cc1c(CC2CCCCC2)nc(SCc2cc(-c3ccccc3)[nH]n2)[nH]c1=O [Compound I-41] | 186 | – | –
CCc1c(CC2CCCCC2)nc(SCc2cc(-c3ccc(O)cc3)[nH]n2)[nH]c1=O [Compound I-17] | 4 | – | –
Cc1c(CC2CCCCC2)nc(SCc2n[nH]c(-c3ccc(F)c(F)c3)c2Cl)[nH]c1=O [Compound I-56] | 587 | 40300 | –
CCc1c(CC2CCCCC2)nc(SCc2cc(-c3ccccc3)[nH]n2)[nH]c1=O [Compound I-02] | 7 | – | –
CCc1c(CC2CCCCC2)nc(SCc2cc(-c3cccc(Cl)c3)[nH]n2)[nH]c1=O [Compound I-05] | 66 | – | –
CCc1c(Cc2c(Cl)cccc2Cl)nc(SCc2cc(-c3ccc(F)c(F)c3)[nH]n2)[nH]c1=O [Compound I-60] | 733 | 64900 | –
CCc1c(Cc2cc(F)cc(F)c2)nc(SCc2n[nH]c(-c3ccc(F)cc3)c2Cl)[nH]c1=O [Compound I-63] | 63 | > 200000 | –
Cc1ccnc2c1NC(=O)c1cccnc1N2C1CC1 [NVP, Nevirapine, reference compound] | 58.4 | – | –
O=c1cc(CC2CCCCC2)nc(SCc2n[nH]c(-c3ccccc3)c2Cl)[nH]1 [Compound I-48] | 927 | 98900 | –
CCc1c(CC2CCCCC2)nc(SCc2cc(-c3ccc(SC)cc3)[nH]n2)[nH]c1=O [Compound I-25] | 12 | – | –
CCc1c(Cc2ccccc2)nc(SCc2n[nH]c(-c3ccccc3)c2Cl)[nH]c1=O [Compound I-71] | 51 | > 200000 | –
CCc1c(CC2CCCCC2)nc(SCc2cc(C3CC3)[nH]n2)[nH]c1=O [Compound I-33] | 25 | – | –
CC(C)c1c(CC2CCCCC2)nc(SCc2cc(-c3ccccc3)[nH]n2)[nH]c1=O [Compound I-35] | 2 | 104000 | –
COc1ccc(-c2cc(CSc3nc(CC4CCCCC4)cc(=O)[nH]3)n[nH]2)cc1 [Compound I-46] | 3960 | – | –
CCc1c(CC2CCCCC2)nc(SCc2n[nH]c(-c3cccc(C)c3)c2Cl)[nH]c1=O [Compound I-24] | 86 | – | –

Structure (SMILES) | EC50 (HIV-1IIIB) [nM] | CC50 at 3 days [1] [nM] | CC50 at 3 days [1, 2] [nM]
CC(C)c1c(CC2CCCCC2)nc(SCc2cc(-c3ccc(Cl)cc3)[nH]n2)[nH]c1=O [Compound I-36] | 9 | 91200 | –
CCc1c(CC2CCCCC2)nc(SCc2cc(-c3ccc(C)cc3)[nH]n2)[nH]c1=O [Compound I-21] | 74 | – | 82800
CCc1c(CC2CCCCC2)nc(SCc2cc(-c3cccc(C)c3)[nH]n2)[nH]c1=O [Compound I-23] | 52 | – | 91400
Cc1c(CC2CCCCC2)nc(SCc2cc(-c3ccc(O)cc3)[nH]n2)[nH]c1=O [Compound I-47] | 142 | 61800 | –
CCc1c(CC2CCCCC2)nc(SCc2cc(-c3ccc(Cl)c(Cl)c3)[nH]n2)[nH]c1=O [Compound I-12] | 310 | – | –
CCc1c(Cc2ccccc2)nc(SCc2cc(-c3ccc(F)c(F)c3)[nH]n2)[nH]c1=O [Compound I-58] | 400 | 81000 | –
CCc1c(CC2CCCCC2)nc(SCc2n[nH]c(-c3ccc(OC)c(Cl)c3)c2Cl)[nH]c1=O [Compound I-11] | 130 | – | –
CCc1c(CC2CCCCC2)nc(SCc2cc(-c3ccc(F)cc3)[nH]n2)[nH]c1=O [Compound I-08] | 20 | – | –
CCc1c(CC2CCCCC2)nc(SCc2cc(C)[nH]n2)[nH]c1=O [Compound I-32] | 28 | – | –
CCc1c(CC2CCCCC2)nc(SCc2n[nH]c(-c3cccc(Cl)c3)c2Cl)[nH]c1=O [Compound I-06] | 57 | – | –
CCc1c(Cc2c(Cl)cccc2Cl)nc(SCc2n[nH]c(-c3ccccc3)c2Cl)[nH]c1=O [Compound I-70] | 92 | > 200000 | –
CCc1c(CC2CCCCC2)nc(SCc2n[nH]c(-c3cccc(Br)c3)c2Cl)[nH]c1=O [Compound I-04] | 101 | – | –
CC(C)c1c(CC2CCCCC2)nc(SCc2cc(-c3ccc(O)cc3)[nH]n2)[nH]c1=O [Compound I-38] | 3 | 156000 | –
CCc1c(CC2CCCCC2)nc(SCc2n[nH]c(-c3ccc(F)cc3)c2Cl)[nH]c1=O [Compound I-09] | 18 | – | –
CCc1c(Cc2ccc3c(c2)OCO3)nc(SCc2n[nH]c(-c3ccc(F)cc3)c2Cl)[nH]c1=O [Compound I-65] | 370 | > 200000 | –
CCc1c(CC2CCCCC2)nc(SCc2cc(-c3ccc(C)cc3C)[nH]n2)[nH]c1=O [Compound I-29] | 476 | – | –

More lines, in order of falling EC50 (HIV-1IIIB), values ahead:

EC50 (HIV-1IIIB) [nM] | Structure (SMILES) | CC50 at 3 days [1] [nM] | CC50 at 3 days [1, 2] [nM]
10100 | O=c1cc(CC2CCCCC2)nc(SCc2cc(-c3ccc(F)cc3)[nH]n2)[nH]1 [Compound I-45] | – | –
5340 | O=c1cc(CC2CCCCC2)nc(SCc2cc(-c3ccccc3)[nH]n2)[nH]1 [Compound I-44] | – | –
4980 | CCc1c(Cc2ccc3c(c2)OCO3)nc(SCc2cc(-c3ccc(F)c(F)c3)[nH]n2)[nH]c1=O [Compound I-62] | > 200000 | –
3880 | O=c1cc(CC2CCCCC2)nc(SCc2n[nH]c(-c3ccc(F)c(F)c3)c2Cl)[nH]1 [Compound I-54] | 89000 | –
2970 | CCc1c(Cc2ccc3c(c2)OCO3)nc(SCc2cc(-c3ccc(F)cc3)[nH]n2)[nH]c1=O [Compound I-50] | 78000 | –
847 | O=c1cc(CC2CCCCC2)nc(SCc2n[nH]c(-c3ccc(F)cc3)c2Cl)[nH]1 [Compound I-67] | > 200000 | –
643 | CCc1c(Cc2c(Cl)cccc2Cl)nc(SCc2n[nH]c(-c3ccc(F)cc3)c2Cl)[nH]c1=O [Compound I-64] | > 200000 | –
602 | CCc1c(Cc2c(Cl)cccc2Cl)nc(SCc2cc(-c3ccc(F)cc3)[nH]n2)[nH]c1=O [Compound I-51] | 45500 | –
355 | Cc1c(CC2CCCCC2)nc(SCc2cc(-c3ccc(F)cc3)[nH]n2)[nH]c1=O [Compound I-42] | – | –
302 | CCc1c(CC2CCCCC2)nc(SCc2cc(-c3cccc(C(F)(F)F)c3)[nH]n2)[nH]c1=O [Compound I-26] | – | –
296 | CCc1c(CC2CCCCC2)nc(SCc2cc(C(C)(C)C)[nH]n2)[nH]c1=O [Compound I-30] | – | –
194 | COc1ccc(-c2cc(CSc3nc(CC4CCCCC4)c(C)c(=O)[nH]3)n[nH]2)cc1 [Compound I-43] | – | –
182 | CCc1c(CC2CCCCC2)nc(SCc2n[nH]c(-c3cccc(C(F)(F)F)c3)c2Cl)[nH]c1=O [Compound I-27] | – | –
162 | CCc1c(CC2CCCCC2)nc(SCc2cc(-c3ccc(F)c(F)c3)[nH]n2)[nH]c1=O [Compound I-18] | – | –
151 | CCc1c(CC2CCCCC2)nc(SCc2n[nH]c(-c3ccc(F)c(F)c3)c2Cl)[nH]c1=O [Compound I-19] | – | –
147 | CCc1c(CC2CCCCC2)nc(SCc2cc(-c3ccc(C(C)C)cc3)[nH]n2)[nH]c1=O [Compound I-28] | – | –
138 | CCc1c(CC2CCCCC2)nc(SCc2n[nH]c(-c3ccc(C)cc3)c2Cl)[nH]c1=O [Compound I-22] | – | –
124 | CCc1c(Cc2cc(F)cc(F)c2)nc(SCc2cc(-c3ccc(F)c(F)c3)[nH]n2)[nH]c1=O [Compound I-61] | 46400 | –
111 | Cc1c(CC2CCCCC2)nc(SCc2n[nH]c(-c3ccc(F)cc3)c2Cl)[nH]c1=O [Compound I-68] | > 200000 | –
89 | CCc1c(CC2CCCCC2)nc(SCc2n[nH]c(-c3ccc(Cl)cc3)c2Cl)[nH]c1=O [Compound I-16] | – | –
81 | CCc1c(Cc2ccc3c(c2)OCO3)nc(SCc2n[nH]c(-c3ccccc3)c2Cl)[nH]c1=O [Compound I-72] | > 200000 | –
80 | CCc1c(Cc2cc(F)cc(F)c2)nc(SCc2n[nH]c(-c3ccc(F)c(F)c3)c2Cl)[nH]c1=O [Compound I-57] | 81100 | –
71 | CCc1c(CC2CCCCC2)nc(SCc2n[nH]c(-c3cccc(F)c3)c2Cl)[nH]c1=O [Compound I-15] | – | –
51 | CCc1c(CC2CCCCC2)nc(SCc2cc(-c3cccc(Br)c3)[nH]n2)[nH]c1=O [Compound I-03] | – | –
35 | CCc1c(CC2CCCCC2)nc(SCc2cc(-c3cccc(F)c3)[nH]n2)[nH]c1=O [Compound I-14] | – | –
33 | CCc1c(CC2CCCCC2)nc(SCc2cc[nH]n2)[nH]c1=O [Compound I-31] | – | –
23 | CCc1c(CC2CCCCC2)nc(SCc2cc(-c3ccccn3)[nH]n2)[nH]c1=O [Compound I-34] | – | –
23 | CCc1c(CC2CCCCC2)nc(SCc2cc(-c3ccc(OC)cc3)[nH]n2)[nH]c1=O [Compound I-10] | – | –
18 | CCc1c(CC2CCCCC2)nc(SCc2cc(-c3ccc(Cl)cc3)[nH]n2)[nH]c1=O [Compound I-07] | – | –
6 | CC(C)c1c(CC2CCCCC2)nc(SCc2n[nH]c(-c3ccc(F)cc3)c2Cl)[nH]c1=O [Compound I-37] | 73000 | –
